Numbers after ± are expanded uncertainties.
Assay: wn = mass fraction of the nth substance listed
Settings: 88.35 kPa, Liquid; for viscosity: Capillary tube (Ostwald / Ubbelohde) method

O=P([O-])(O)O.[K+] [monopotassium phosphate] + O
viscosity (298.15 K, w1 = 0.2075): 1.198 ± 0.12 mPa·s
mass density (298.15 K, Weighing bottle method, w1 = 0.2075): 1144 ± 11 kg/m3
viscosity (313.15 K, w1 = 0.2579): 1.013 ± 0.1 mPa·s
mass density (313.15 K, Weighing bottle method, w1 = 0.2579): 1187.2 ± 12 kg/m3

[Cl-].[K+] [potassium chloride] + O
viscosity (298.15 K, w1 = 0.2672): 0.8122 ± 0.081 mPa·s
mass density (298.15 K, Weighing bottle method, w1 = 0.2672): 1180 ± 12 kg/m3
viscosity (313.15 K, w1 = 0.29): 0.6778 ± 0.068 mPa·s
mass density (313.15 K, Weighing bottle method, w1 = 0.29): 1192 ± 12 kg/m3

O=S(=O)([O-])[O-].[K+].[K+] [potassium sulfate] + O
viscosity (298.15 K, w1 = 0.1156): 1.015 ± 0.1 mPa·s
mass density (298.15 K, weighing bottle method, w1 = 0.1156): 1084.3 ± 11 kg/m3
viscosity (313.15 K, w1 = 0.1337): 0.7917 ± 0.08 mPa·s
mass density (313.15 K, weighing bottle method, w1 = 0.1337): 1097.7 ± 11 kg/m3

From the NIST ThermoML archive (doi:10.1016/j.fluid.2017.04.010)
